Test results published in US8987287B2, “Spirocyclic morphinans and their use” (Purdue Pharma L.P., priority 2012, dated 2015).
Like-named read-outs stand apart in the source and are kept apart here.

Tests used:
μ-opioid receptor [1] = target: T1, μ-opioid receptor (Homo sapiens (Human), UniProt P35372); assay: μ-opioid receptor radioligand ([3H]-diprenorphine) dose-displacement binding assay; conditions: binding affinity
Description: μ-Opioid Receptor Binding Assay Procedures: Radioligand dose-displacement binding assays for μ-opioid receptors used 0.3 nM [^3H]-diprenorphine (Perkin Elmer, Shelton, Conn.), with […] membrane protein/well in a final volume of 500 μl binding buffer (10 mM MgCl2, 1 mM EDTA, 5% DMSO, 50 mM HEPES, pH 7.4). Reactions were carried out in the absence or presence of increasing concentrations of unlabeled naloxone. All reactions were conducted in 96-deep well polypropylene plates for 2 hours at room temperature. Binding reactions were terminated by rapid filtration onto 96-well Unifilter GF/C filter plates (Perkin Elmer, Shelton, Conn.), presoaked in 0.5% polyethylenimine using a 96-well tissue harvester (Perkin Elmer, Shelton, Conn.) followed by performing three filtration washes with 500 μl of ice-cold binding buffer. Filter plates were subsequently dried at 50° C. for 2-3 hours. BetaScint scintillation cocktail (Perkin Elmer, Shelton, Conn.) was added (50 μl/well), and plates were counted using a Packard Top-Count for 1 min/well. The data were analyzed using the one-site competition curve fitting functions in GraphPad PRISM™ v. 3.0 or higher (San Diego, Calif.), or an in-house function for one-site competition curve-fitting.
(§1) In TABLE 1, binding affinity of certain Compounds of the Invention to the μ-, δ- and κ-opioid receptors was determined as described above.

κ opioid receptor [2] = target: T2, κ opioid receptor (Homo sapiens (Human), UniProt P41145); assay: κ-opioid receptor radioligand ([3H]-U69,593) dose-displacement binding assay; conditions: binding affinity
Description: κ-Opioid Receptor Binding Assay Procedures: Membranes from recombinantHEK-293 cells, CHO or U-2 OS cells expressing the recombinant human κ opioid receptor (κ) were prepared by lysing cells in ice cold hypotonic buffer (2.5 mM MgCl2, 50 mM HEPES, pH 7.4) (10 mL/10 cm dish) followed by homogenization with a tissue grinder/Teflon pestle. Membranes were collected by centrifugation at 30,000×g for 15 min at 4° C. and pellets were resuspended in hypotonic buffer to a final concentration of 1-3 mg/mL. Protein concentrations were determined using the BioRad protein assay reagent with bovine serum albumen as standard. Aliquots of κ receptor membranes were stored at −80° C.
Radioligand dose displacement assays used 0.4 nM [^3H]-U69,593 (GE Healthcare, Piscataway, N.J.; 40 Ci/mmole) with 15 μg membrane protein (recombinant κ opioid receptor expressed in HEK 293 cells; in-house prep) in a final volume of 200 μl binding buffer (5% DMSO, 50 mM Trizma base, pH 7.4). Non-specific binding was determined in the presence of 10 μM unlabeled naloxone or U69,593. All reactions were performed in 96-well polypropylene plates for 1 hour at a temperature of about 25° C. Binding reactions were terminated by rapid filtration onto 96-well Unifilter GF/C filter plates (Perkin Elmer, Shelton, Conn.) presoaked in 0.5% polyethylenimine (Sigma). Harvesting was performed using a 96-well tissue harvester (Perkin Elmer, Shelton, Conn.) followed by five filtration washes with 200 μl ice-cold binding buffer. Filter plates were subsequently dried at 50° C. for 1-2 hours. Fifty μl/well scintillation cocktail (Perkin Elmer, Shelton, Conn.) was added and plates were counted in a Packard Top-Count for 1 min/well.
as §1

μ-opioid receptor [3] = target: T1, μ-opioid receptor; assay: μ-opioid receptor [35S]GTPγS functional assay, HEK-293 or CHO cells; assay type: biochemical; conditions: for Emax: relative to DAMGO, HEK-293 or CHO cells
Description: μ-Opioid Receptor Functional Assay Procedures: [^35S]GTPγS functional assays were conducted using freshly thawed μ-receptor membranes prepared in-house from a cell line expressing recombinant μ opioid receptor in a HEK-293, CHO or U-2 OS cell background, or purchased from a commercial source (Perkin Elmer, Shelton, Conn.; or DiscovRx, Fremont, Calif.). Assay reactions were prepared by sequentially adding the following reagents to binding buffer (100 mM NaCl, 10 mM MgCl2, 20 mM HEPES, pH 7.4) on ice (final concentrations indicated): membrane protein (0.026 mg/mL), saponin ([…]), GDP ([…]) and [^35S]GTPγS (0.20 nM; Perkin Elmer, Shelton, Conn.). The prepared membrane solution (190 μl/well) was transferred to 96-shallow well polypropylene plates containing 10 μl of 20× concentrated stock solutions of the agonist [D-Ala^2, N-methyl-Phe^4 Gly-ol^5]-enkephalin (DAMGO) prepared in dimethyl sulfoxide (DMSO). Plates were incubated for 30 min at about 25° C. with shaking. Reactions were terminated by rapid filtration onto 96-well Unifilter GF/B filter plates (Perkin Elmer, Shelton, Conn.) using a 96-well tissue harvester (Perkin Elmer, Shelton, Conn.) followed by three filtration washes with 200 μl of ice-cold wash buffer (10 mM NaH2PO4, 10 mM Na2HPO4, pH 7.4). Filter plates were subsequently dried at 50° C. for 2-3 hours. BetaScint scintillation cocktail (Perkin Elmer, Shelton, Conn.) was added (50 μl/well) and plates were counted using a Packard Top-Count for 1 min/well. Data were analyzed using the sigmoidal dose-response curve fitting functions in GraphPad PRISM v. 3.0, or an in-house function for non-linear, sigmoidal dose-response curve-fitting.
μ-Opioid Receptor Functional Data: μ GTP EC50 is the concentration of a compound providing 50% of the maximal response for the compound at a μ-opioid receptor.
μ GTP Emax (%) is the maximal effect elicited by a compound relative to the effect elicited by DAMGO, a standard μ agonist. Generally, the μ GTP Emax (%) value measures the efficacy of a compound to treat or prevent pain or other Conditions.
(§2) In TABLE 2, activity response of certain Compounds of the Invention to the μ-, δ- and κ-opioid receptors was determined as described above for functional assays using HEK-293 or CHO cells.

κ opioid receptor [4] = target: T2, κ opioid receptor; assay: κ-opioid receptor [35S]GTPγS functional assay, HEK-293 or CHO cells; assay type: biochemical; conditions: for Emax: relative to U69,593, HEK-293 or CHO cells
Description: κ-Opioid Receptor Functional Assay Procedures: Functional [^35S]GTPγS binding assays were conducted as follows. κ opioid receptor membrane solution was prepared by sequentially adding final concentrations of 0.026 μg/μl κ membrane protein (in-house), 10 μg/mL saponin, 3 μM GDP and 0.20 nM [^35S]GTPγS to binding buffer (100 mM NaCl, 10 mM MgCl2, 20 mM HEPES, pH 7.4) on ice. The prepared membrane solution (190 μl/well) was transferred to 96-shallow well polypropylene plates containing 10 μl of 20× concentrated stock solutions of agonist prepared in DMSO. Plates were incubated for 30 min at a temperature of about 25° C. with shaking. Reactions were terminated by rapid filtration onto 96-well Unifilter GF/B filter plates (Perkin Elmer, Shelton, Conn.) using a 96-well tissue harvester (Packard) and followed by three filtration washes with 200 μl ice-cold binding buffer (10 mM NaH2PO4, 10 mM Na2HPO4, pH 7.4). Filter plates were subsequently dried at 50° C. for 2-3 hours. Fifty μl/well scintillation cocktail (Perkin Elmer, Shelton, Conn.) was added and plates were counted in a Packard Top-Count for 1 min/well.
κ-Opioid Receptor Functional Data: κ GTP EC50 is the concentration of a compound providing 50% of the maximal response for the compound at a κ receptor.
κ GTP Emax (%) is the maximal effect elicited by a compound relative to the effect elicited by U69,593.
as §2

μ-opioid receptor [5] = target: T1, μ-opioid receptor; assay: μ-opioid receptor [35S]GTPγS functional assay, U-2 OS cells; assay type: biochemical; conditions: for Emax: relative to DAMGO, U-2 OS cells
κ opioid receptor [6] = target: T2, κ opioid receptor; assay: κ-opioid receptor [35S]GTPγS functional assay, U-2 OS cells; assay type: biochemical; conditions: for Emax: relative to U69,593, U-2 OS cells
[7] = read-out: Opioid Receptor Ki (nM) μ
[8] = read-out: Opioid Receptor Ki (nM) κ
[9] = bound given in μM, read-out: Opioid Receptor Ki κ

`CN1CC[C@]23C[C@]4(CC[C@@]2(O)[C@H]1Cc1ccc(O)cc13)NC(=O)NC4=O` [Compound 10, (4bR,4′S,8aS,9R)-3,8a-dihydroxy-11-methyl-5,7,8,8a,9,10-hexahydrospiro[9,4b-(epiminoethano)phenanthrene-6,4′-imidazolidine]-2′,5′-dione] gave a Ki (μ-opioid receptor [1]; [7]) of 27 ± 3.07 nM and a Ki (κ opioid receptor [2]; [8]) of 155 ± 29.5 nM.

`CCN1C(=O)NC(=O)[C@@]12CC[C@@]1(O)[C@H]3Cc4ccc(O)cc4[C@@]1(CCN3CC1CC1)C2` [Compound 49, (4S,4b′R,8a′S,9′R)-11′-(cyclopropylmethyl)-3-ethyl-3′,8a′-dihydroxy-8′,8a′,9′,10′-tetrahydro-5′H,7′H-spiro[imidazolidine-4,6′-[9,4b](epiminoethano)phenantrene]-2,5-dione] was tested, and the Ki (μ-opioid receptor [1]; [7]) was 2.28 ± 0.62 nM, the Ki (κ opioid receptor [2]; [8]) was 0.47 ± 0.026 nM and the EC50 (μ-opioid receptor [3]) was over 20000 nM. For the same molecule, the Emax (μ-opioid receptor [3]) was 1%, the EC50 (κ opioid receptor [4]) was 6.63 ± 2.21 nM and the Emax (κ opioid receptor [4]) was 59.3 ± 4.06%. It also gave an EC50 (μ-opioid receptor [5]) of over 20000 nM, an Emax (μ-opioid receptor [5]) of 2.5% and an EC50 (κ opioid receptor [6]) of 1.82 ± 0.098 nM. The Emax (κ opioid receptor [6]) was 111 ± 3.51%.

In the case of `O=C1NC(=O)[C@@]2(CC[C@H]3[C@H]4Cc5ccc(O)cc5[C@@]3(CCN4CC3CC3)C2)N1` [Compound 7, (4bS,4′S,8aR,9R)-11-(cyclopropylmethyl)-3-hydroxy-5,7,8,8a,9,10-hexahydrospiro[9,4b-(epiminoethano)phenanthrene-6,4′-imidazolidine]-2′,5′-dione], the Ki (μ-opioid receptor [1]; [7]) is reported as 8.39 ± 2.72 nM, the Ki (κ opioid receptor [2]; [8]) is reported as 0.23 ± 0.05 nM and the EC50 (μ-opioid receptor [3]) is reported as 3.76 ± 0.41 nM. For the same molecule, the Emax (μ-opioid receptor [3]) was 37 ± 4.04%, the EC50 (κ opioid receptor [4]) was 3.68 ± 0.99 nM and the Emax (κ opioid receptor [4]) was 86.3 ± 2.19%.

`COc1ccc2c(c1)[C@]13CCN(CC4CC4)[C@H](C2)[C@]1(O)CC[C@@]1(C3)NC(=O)NC1=O` [Compound 2, (4bR,4′S,8aS,9R)-11-(cyclopropylmethyl)-8a-hydroxy-3-methoxy-5,7,8,8a,9,10-hexahydrospiro[9,4b-(epiminoethano)phenanthrene-6,4′-imidazolidine]-2′,5′-dione] was tested, and the Ki (μ-opioid receptor [1]; [7]) was 9050 ± 895 nM, the Ki (κ opioid receptor [2]; [8]) was 130 ± 22.7 nM and the EC50 (μ-opioid receptor [3]) was 1950 ± 37.7 nM. For the same molecule, the Emax (μ-opioid receptor [3]) was 31.3 ± 2.4%, the EC50 (κ opioid receptor [4]) was 2500 ± 556 nM and the Emax (κ opioid receptor [4]) was 63 ± 1.53%.

`COc1ccc2c(c1)[C@]13CCN[C@H](C2)[C@]1(O)CC[C@@]1(C3)NC(=O)NC1=O` [Compound 12, (4bR,4′S,8aS,9R)-8a-hydroxy-3-methoxy-5,7,8,8a,9,10-hexahydrospiro[9,4b-(epiminoethano)phenanthrene-6,4′-imidazolidine]-2′,5′-dione] showed a Ki (μ-opioid receptor [1]; [7]) of 14900 nM and a Ki (κ opioid receptor [2]; [9]) of over 20000 nM.

`CN1C(=O)NC(=O)[C@@]12CC[C@@]1(O)[C@H]3Cc4ccc(O)cc4[C@@]1(CCN3CC1CC1)C2` [Compound 63, (4S,4b′R,8a′S,9′R)-11′-(cyclopropylmethyl)-3′,8a′-dihydroxy-3-methyl-8′,8a′,9′,10′-tetrahydro-5′H,7′H-spiro[imidazolidine-4,6′-[9,4b](epiminoethano)phenantrene]-2,5-dione] showed a Ki (μ-opioid receptor [1]; [7]) of 0.86 ± 0.11 nM, a Ki (κ opioid receptor [2]; [8]) of 0.3 ± 0.041 nM and an EC50 (μ-opioid receptor [3]) of over 20000 nM. For the same molecule, the Emax (μ-opioid receptor [3]) was 1%, the EC50 (κ opioid receptor [4]) was 3.53 ± 0.43 nM and the Emax (κ opioid receptor [4]) was 74.7 ± 1.45%. It also gave an EC50 (μ-opioid receptor [5]) of 0.97 ± 0.053 nM, an Emax (μ-opioid receptor [5]) of 14.3 ± 0.67% and an EC50 (κ opioid receptor [6]) of 0.69 ± 0.025 nM. For the same molecule, the Emax (κ opioid receptor [6]) was 108%.

`COc1ccc2c(c1)[C@]13CCN(Cc4ccccc4)[C@H](C2)[C@]1(O)CC[C@@]1(C3)NC(=O)NC1=O` [Compound 11, (4bR,4′S,8aS,9R)-11-benzyl-8a-hydroxy-3-methoxy-5,7,8,8a,9,10-hexahydrospiro[9,4b-(epiminoethano)phenanthrene-6,4′-imidazolidine]-2′,5′-dione] gave a Ki (μ-opioid receptor [1]; bound given in μM, read-out: Opioid Receptor Ki μ) of over 20000 nM and a Ki (κ opioid receptor [2]; [9]) of over 20000 nM.
